Data on eleven molecules can be found in ChEMBL document CHEMBL1201862, “PubChem BioAssay data set” (2004).

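Exposure lasted 48 hours, with cells grown in 96-well plates and compounds tested at five concentrations. The concentration for 50% growth inhibition is given as GI50.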 The source made the active and inactive calls. No stated cut-off is given here; in the data, active = GI50 up to about 1.1 µM and inactive = higher.

Common to all, as to assay: NCI tumour cell line growth inhibition, 48 h
Assay [1] deals with KM12.
Assay [2] deals with OVCAR-3.
For assay [3], the system named is SN12C.
The subject of assay [4] is LOX IMVI.
Assay [5] concerns SF-295.
Assay [6] deals with NCI-H23.
The subject of assay [7] is HOP-62.
In assay [8] the test system is IGROV-1.
For assay [9], the system named is NCI-H226.
Assay [10] relates to HCT-116.
In assay [11] the test system is U-251.
In assay [12] the test system is EKVX.
In assay [13] the test system is K562.
In assay [14] the test system is NCI-H522.
The test system of assay [15] is SK-MEL-2.
For assay [16], the system named is RXF 393.
In assay [17] the test system is MCF7.
The subject of assay [18] is A549.
The test system of assay [19] is OVCAR-4.
Assay [20] concerns HL-60.

Turning to `Cc1cc(O)c2c(c1O)C(=O)C13C(=C(O)C4C(O)C1C1C(O)C3C(O)=C3C(=O)c5c(O)cc(C)c(O)c5C(=O)C341)C2=O` (stereo not drawn), the GI50 in [1] is 0.0726 µM (active); in assay [2], 3.56 µM (inactive); in assay [3], 0.0471 µM (active); in assay [4] it was 0.106 µM (active); in assay [5] it was 0.03 µM (active); in assay [6] it was 0.207 µM (active). Further, the GI50 in assay [7] was 0.207 µM (active); in assay [8], 0.137 µM (active); in assay [9] it was 0.199 µM (active); in [10], 0.0342 µM (active); in [11], 0.0214 µM (active); in [12], 0.0845 µM (active). The GI50 in assay [13] was 0.0322 µM (active); in assay [14] it was 0.185 µM (active); in assay [15], 0.172 µM (active); in assay [16], 0.0491 µM (active); in [17], 0.0577 µM (active); in assay [18], 0.0311 µM (active). In assay [19], the GI50 was 0.385 µM (active).

For the molecule `COc1ccc2c(c1)c1c(n2CCN(C)C)-c2ccccc2CC1`, the GI50 in assay [1] is 14.4 µM (inactive); in assay [2] it was 16.6 µM (inactive); in assay [3], 14.1 µM (inactive); in assay [4], 16.6 µM (inactive); in assay [5] it was 16.9 µM (inactive); in [6] it was 18 µM (inactive). Moreover, the GI50 in [7] is 16.4 µM (inactive); in assay [8] it was 11.9 µM (inactive); in assay [9], 12.2 µM (inactive); in assay [10], 15.2 µM (inactive); in assay [11], 13.1 µM (inactive); in assay [12], 9.77 µM (inactive). The GI50 in assay [13] was 11.5 µM (inactive); in assay [14] it was 18.5 µM (inactive); in [15], 16.1 µM (inactive); in assay [17], 18.3 µM (inactive); in assay [18], 15.6 µM (inactive); in [19] it was 16.9 µM (inactive).

With `CN(C)CCNC(=O)c1cc(Cl)cc2cc3ccccc3nc12`, the GI50 was 1.17 µM (inactive) in assay [1]; 4.71 µM (inactive) in assay [2]; 0.731 µM (active) in assay [3]; 0.597 µM (active) in assay [4]; 0.492 µM (active) in assay [5]; 1.39 µM (inactive) in [6]. Besides, the GI50 is 1.62 µM (inactive) in [7]; 1.14 µM (inactive) in assay [8]; 0.843 µM (active) in [9]; 0.578 µM (active) in assay [20]; 0.445 µM (active) in assay [10]; 1.64 µM (inactive) in assay [11]. Moreover, the GI50 in assay [12] was 1.43 µM (inactive); in assay [13], 1.01 µM (active); in [15] it was 1.98 µM (inactive); in assay [16], 1.06 µM (active); in assay [17], 0.757 µM (active); in assay [18], 0.557 µM (active). Also, the GI50 in assay [19] was 2.2 µM (inactive).

Turning to `Cc1ccc2c3c1[C@@H]1O[C@@H]1c1cccc(c1-3)[C@@H]1O[C@H]21`, the GI50 in assay [1] is 12.4 µM (inactive); in [3], 11.1 µM (inactive); in [4] it was 2.4 µM (inactive); in assay [5], 15.8 µM (inactive); in assay [6], 15.1 µM (inactive); in assay [7] it was 15.7 µM (inactive). Moreover, the GI50 in assay [9] is 28.2 µM (inactive); in assay [10], 5.24 µM (inactive); in assay [11], 11.9 µM (inactive); in [12], 16.1 µM (inactive); in [13] it was 4.29 µM (inactive); in assay [14], 12.2 µM (inactive). In addition, the GI50 is 16.1 µM (inactive) in assay [15], 4.66 µM (inactive) in assay [17], 15.9 µM (inactive) in assay [18] and 17.5 µM (inactive) in assay [19].

As for `Cc1cc(=O)nc(S(=O)(=O)NC(=S)Nc2ccc(Cl)cc2)[nH]1`, the GI50 in assay [1], in assay [2], in assay [3], in assay [5], in [6] and in assay [7] was > 100 µM (inactive) in each case. The GI50 in [8] is > 100 µM (inactive); in assay [9] it was > 100 µM (inactive); in [20], > 100 µM (inactive); in assay [10] it was > 100 µM (inactive); in assay [11], > 100 µM (inactive); in assay [12] it was 39.5 µM (inactive). For the same molecule, the GI50 in assay [14] is 27.1 µM (inactive); in [15], > 100 µM (inactive); in assay [16] it was 2.74 µM (inactive); in assay [17], > 100 µM (inactive); in [18] it was > 100 µM (inactive); in [19] it was > 100 µM (inactive).

Turning to `CN(C)C(=O)C(F)(F)C(c1ccc(Br)cc1)C1C(=O)N(C)C(=O)N(C)C1=O` (stereo not drawn), the GI50 in [1], in assay [2], in [4], in [5], in [6] and in assay [7] was > 100 µM (inactive) in each case. The GI50 in [9], in assay [10], in [11], in [12], in [13] and in assay [15] was > 100 µM (inactive) each time. The GI50 in [16], in assay [17], in [18] and in [19] was > 100 µM (inactive) in each case.

Take `O=C(O)c1ccc(C(=O)O)c2c(C(=O)O)ccc(C(=O)O)c12`: the GI50 in assay [1], in [2], in assay [3], in assay [4], in [5] and in assay [6] was > 100 µM (inactive) each time. Besides, the GI50 in assay [7], in [8], in assay [9], in [10], in assay [11] and in assay [12] was > 100 µM (inactive) in each case. Moreover, the GI50 in [13], in assay [14], in assay [15], in [16], in [17] and in assay [18] was > 100 µM (inactive) each time. For the same molecule, the GI50 in assay [19] is > 100 µM (inactive).

On to `O=C(O)C(F)(F)C(F)(F)C(F)(F)C(F)(F)C(F)(F)C(F)(F)C(F)(F)C(F)(F)F`, for which the GI50 in assay [1] was 53.1 µM (inactive); in assay [2], 43.8 µM (inactive); in [3], 50.5 µM (inactive); in assay [4], 42.3 µM (inactive); in assay [5], 31 µM (inactive); in [6] it was 61.4 µM (inactive). In addition, the GI50 in assay [7] was 52.6 µM (inactive); in assay [8], > 100 µM (inactive); in assay [9], 34.2 µM (inactive); in [20], 25.2 µM (inactive); in assay [10], 41 µM (inactive); in assay [11], 26.4 µM (inactive). Moreover, the GI50 in [12] is 48 µM (inactive); in assay [13] it was 27.1 µM (inactive); in [14], 62.5 µM (inactive); in assay [16], > 100 µM (inactive); in [17] it was 57 µM (inactive); in assay [18], 47.8 µM (inactive). In addition, in [19], the GI50 is 73.3 µM (inactive).

In the case of `CN1C(=O)CC(=O)N1/C(=C/c1ccccc1)c1ccccc1`, the GI50 in assay [1] was > 100 µM (inactive); in assay [2], 39.3 µM (inactive); in assay [3], > 100 µM (inactive); in assay [4], 17 µM (inactive); in [5], 67 µM (inactive); in [6] it was > 100 µM (inactive). For the same molecule, the GI50 in assay [7] was > 100 µM (inactive); in [8], 18.2 µM (inactive); in assay [9] it was > 100 µM (inactive); in [10], > 100 µM (inactive); in [11], > 100 µM (inactive); in assay [12], > 100 µM (inactive). The GI50 was 55.6 µM (inactive) in assay [13]; 38.5 µM (inactive) in [15]; 14 µM (inactive) in assay [16]; 47.2 µM (inactive) in [17]; 85.3 µM (inactive) in assay [18]; 49.8 µM (inactive) in assay [19].

Take `CC(=C(c1ccccc1)c1ccccc1)N1C(=O)CC(=O)N1C`: the GI50 is 50.4 µM (inactive) in assay [1]; 32.4 µM (inactive) in assay [2]; > 100 µM (inactive) in assay [3]; 17 µM (inactive) in [4]; 52.7 µM (inactive) in [5]; > 100 µM (inactive) in assay [6]. In addition, the GI50 in assay [7] is 27.5 µM (inactive); in [8], 18.3 µM (inactive); in assay [9], > 100 µM (inactive); in [10], 74.6 µM (inactive); in [11], 61.4 µM (inactive); in assay [12], 53.3 µM (inactive). Also, the GI50 in assay [13] was 55.5 µM (inactive); in assay [15] it was 16.7 µM (inactive); in assay [16], 15.4 µM (inactive); in assay [17] it was 43.8 µM (inactive); in assay [18], 35 µM (inactive); in [19] it was 32.1 µM (inactive).

As to `O=C(O)C(O)Cc1ccccn1` (stereo not drawn), the GI50 in [1], in assay [2], in [4], in assay [5], in assay [6] and in [7] was > 100 µM (inactive) each time. Further, the GI50 in assay [8], in [9], in [20], in [11], in assay [12] and in [13] was > 100 µM (inactive) throughout. In addition, the GI50 in assay [14], in assay [15], in assay [16], in [17], in assay [18] and in assay [19] was > 100 µM (inactive) each time.
